Reference: patent publication US11891386B2, “Indole compounds and their use” (ARIAGEN, INC., priority 2017, dated 2024)
Values belong to the compound of their own block, whether it stands above or below them.

Tested on: IL-21 secretion from human CD4+ T cells
Experiment: Suppression of IL-21 secretion by activated Th17 cells (ALPHALISA)
Type: cell-based
Conditions: for IC50: 120 h, human CD4+ T cells under Th17 stimulation, 5 days; for potency in suppressing IL-21 secretion, in words: human CD4+ T cells
Excerpt: IL-21 is a pro-inflammatory cytokine secreted by CD4^+ Th17 cells and is thought to serve as a T-cell growth factor playing overlapping roles with IL-2. This Example describes a study that measured the IC50 values of the indole compounds disclosed herein for suppressing IL-21 secretion from human CD4^+ T cells that had been treated with stimulatory conditions that gave rise to TH17 cells (see, e.g., Dobritsa et al., J Biomol Screen. 18(1):75-84 (2013)).
Human CD4^+ T cells were purchased from Lonza Walkersville Inc. (Walkersville, MD). DMSO was obtained from Sigma (St. Louis, MO). Greiner cell culture plates, Gibco DMEM cell culture medium, media supplements, and antibiotics, as well as DYNABEADS Human T-Activator CD3/CD28 and R&D Systems TGF-β, IL-1β and IL-23 and Invitrogen IL-6 cytokines, were purchased through Fisher Scientific (Pittsburgh, PA). ALPHALISA assay plates and the Human Interleukin-21 ALPHALISA kit was obtained from Perkin Elmer (Boston, MA).
Cell culture plates were pre-coated with test compounds in serial dilutions for generating a 10-point, 3-fold dose response curve with a top concentration of 1 μM or 100 nM. To do this, compounds were dissolved in DMSO and added to an ECHO qualified plate for transfer to the cell culture plate with the ECHO555. The indole compounds to be tested were dissolved in […] and wells were backfilled with DMSO so that all treatments received 0.1% DMSO final volume. Positive control (0% inhibition) wells, in which compounds were replaced with […], were included on each plate. At least 15×10^6 frozen CD4^+ T cells per plate of compounds were thawed in a 37° C. water bath, and the cells were washed twice with 10 mL of the complete medium (DMEM supplemented with 10% fetal bovine serum (FBS), 100 U/mL penicillin, and 100 μg/mL streptomycin), followed by centrifugation (250×g, 10 min). Cells were re-suspended to the desired density, and cultured in 384-well treated sterile cell culture plates in a total volume of 50 μL per well. Each plate included wells with induced and un-induced cells.
Induced cells were activated in the complete medium with DYNABEADS Human T-Activator CD3/CD28 at a bead-to-cell ratio of 1:2.5 and stimulated with the following cytokines: transforming growth factor-β (TGF-β, 5 ng/mL), IL-6 (20 ng/mL), IL-23 (20 ng/mL), and IL-1β (10 ng/mL).
Un-induced cells were left in complete medium with no additional supplements. Plates were incubated at 37° C., 5% CO2 for a total of 5 days. Upon completion of the 5 day incubation period, cells were spun down (1,000×g, 1 min) and supernatant was transferred to the ALPHALISA assay plate using the Mosquito HTS liquid handler (TTP Labtech Inc., Cambridge, MA).
IL-21 levels in cell supernatants and cell-free control samples were measured using the ALPHALISA assay kit from Perkin Elmer, following the manufacturer's instructions. The assay was run at room temperature in 384-well ALPHAPLATES (cat. 6005350; Boston, MA). Briefly, immediately after transferring the cell supernatant to the assay plate, anti-IL-21 acceptor beads were added with the CERTUS FLEX liquid handler (LEAP Technologies, Morrisville, NC). The plate was sealed, spun down and incubated for 30 minutes. After incubation, the seal was removed, anti-IL-21 biotinylated antibody was added with the CERTUS FLEX, and the plate was sealed again, spun down and incubated for 60 minutes. Next, the seal was removed, streptavidin-coated donor beads were added with the CERTUS FLEX, and the plate was sealed, spun down and incubated for another 60 minutes. Finally, the seal was removed and the plate was read using the ENVISION reader (Perkin Elmer, Boston, MA) set with an excitation filter of 680 nm and an emission filter of 615 nm. Two independent IL-21 standard dilution curves were run per plate with analyte provided in the ALPHALISA kit.
For estimation of the assay performance, Z′ values were calculated for each plate, comparing positive and negative controls. […]

Structure (SMILES): COC(=O)c1csc(C(=O)c2c[nH]c3ccccc23)n1 [ARI-001, ITE]
IC50: 38.2 nM

Structure (SMILES): CNC(=O)c1csc(C(=O)c2c[nH]c3ccccc23)n1 [ARI-004]
IC50: 231 nM
potency in suppressing IL-21 secretion, in words: weak activity

Structure (SMILES): Cc1nc(-c2csc(C(=O)c3c[nH]c4ccccc34)n2)no1 [ARI-030, (1H-indol-3-yl)(4-(5-methyl-1,2,4-oxadiazol-3-yl)thiazol-2-yl)methanone]
IC50: 40 nM
potency in suppressing IL-21 secretion, in words: among the least potent

Structure (SMILES): Cc1noc(-c2csc(C(=O)c3c[nH]c4ccccc34)n2)n1 [ARI-031, (1H-indol-3-yl)(4-(3-methyl-1,2,4-oxadiazol-5-yl)thiazol-2-yl)methanone]
IC50: 42.6 nM
potency in suppressing IL-21 secretion, in words: among the least potent

Structure (SMILES): CNC(=O)c1csc(C(=O)c2c[nH]c3ccc(Cl)cc23)n1 [ARI-049, 2-(5-chloro-1H-indole-3-carbonyl)-N-methylthiazole-4-carboxamide]
IC50: 10.1 nM

Structure (SMILES): COC(=O)c1csc(C(=O)c2c[nH]c3ccc(Cl)cc23)n1 [ARI-055, methyl 2-(5-chloro-1H-indole-3-carbonyl)thiazole-4-carboxylate]
IC50: 73.6 nM

Structure (SMILES): O=C(c1nc(-c2nnco2)cs1)c1c[nH]c2ccccc12 [ARI-056, (4-(1,3,4-oxadiazol-2-yl)thiazol-2-yl)(1H-indol-3-yl)methanone]
IC50: 4.9 nM

Structure (SMILES): Cc1nnc(-c2csc(C(=O)c3c[nH]c4ccccc34)n2)o1 [ARI-060, (1H-indol-3-yl)(4-(5-methyl-1,3,4-oxadiazol-2-yl)thiazol-2-yl)methanone]
IC50: 110 nM
potency in suppressing IL-21 secretion, in words: among the least potent

Structure (SMILES): CNC(=O)c1csc(C(=O)c2c[nH]c3ccc(F)cc23)n1 [ARI-065, 2-(5-fluoro-1H-indole-3-carbonyl)-N-methylthiazole-4-carboxamide]
IC50: 14 nM

Structure (SMILES): COC(=O)c1csc(C(=O)c2c[nH]c3ccc(F)cc23)n1 [ARI-066, methyl 2-(5-fluoro-1H-indole-3-carbonyl)thiazole-4-carboxylate]
IC50: 48.6 nM

Structure (SMILES): CCC(=O)c1csc(C(=O)c2c[nH]c3ccc(Cl)cc23)n1 [ARI-067, 1-(2-(5-chloro-1H-indole-3-carbonyl)thiazol-4-yl)propan-1-one]
IC50: 6.3 nM

Structure (SMILES): Nc1nnc(-c2csc(C(=O)c3c[nH]c4ccccc34)n2)o1 [ARI-083, (4-(5-amino-1,3,4-oxadiazol-2-yl)thiazol-2-yl)(1H-indol-3-yl)methanone]
IC50: 0.3 nM
potency in suppressing IL-21 secretion, in words: most potent

Structure (SMILES): CCC(=O)c1csc(C(=O)c2c[nH]c3ccc(F)cc23)n1 [ARI-087, 1-(2-(5-fluoro-1H-indole-3-carbonyl)thiazol-4-yl)propan-1-one]
IC50: 25.4 nM

Structure (SMILES): Nc1nnc(-c2csc(C(=O)c3c[nH]c4ccccc34)n2)s1 [ARI-090, (4-(5-amino-1,3,4-thiadiazol-2-yl)thiazol-2-yl)(1H-indol-3-yl)methanone]
IC50: 8.4 nM

Structure (SMILES): Nc1nnc(-c2csc(C(=O)c3c[nH]c4c(F)cccc34)n2)o1 [ARI-118, (4-(5-amino-1,3,4-oxadiazol-2-yl)thiazol-2-yl)(7-fluoro-1H-indol-3-yl)methanone]
IC50: 0.8 nM
times more potent than ARI-087 (IL-21 secretion assay): about 32 times
potency in suppressing IL-21 secretion, in words: most potent

Structure (SMILES): Nc1nnc(-c2csc(C(=O)c3c[nH]c4cc(Cl)c(Cl)cc34)n2)o1 [ARI-120, (4-(5-amino-1,3,4-oxadiazol-2-yl)thiazol-2-yl)(5,6-dichloro-1H-indol-3-yl)methanone]
IC50: 0.3 nM
potency in suppressing IL-21 secretion, in words: most potent

Structure (SMILES): CCC(=O)c1csc(C(=O)c2c[nH]c3c(F)cccc23)n1 [ARI-140, 1-(2-(7-fluoro-1H-indole-3-carbonyl)thiazol-4-yl)propan-1-one]
IC50: 8.6 nM

Structure (SMILES): CCC(=O)c1csc(C(=O)c2c[nH]c3cccc(F)c23)n1 [ARI-142, 1-(2-(4-fluoro-1H-indole-3-carbonyl)thiazol-4-yl)propan-1-one]
IC50: 209 nM
potency in suppressing IL-21 secretion, in words: least active in suppressing IL-21 secretion

Structure (SMILES): CCC(=O)c1csc(C(=O)c2c[nH]c3cc(F)ccc23)n1 [ARI-143, 1-(2-(6-fluoro-1H-indole-3-carbonyl)thiazol-4-yl)propan-1-one]
IC50: 18.8 nM

Structure (SMILES): NCc1nnc(-c2csc(C(=O)c3c[nH]c4c(F)cccc34)n2)o1 [ARI-145, (4-(5-(aminomethyl)-1,3,4-oxadiazol-2-yl)thiazol-2-yl)(7-fluoro-1H-indol-3-yl)methanone]
IC50: 46.9 nM

IC50: 13.4 nM
Structure (SMILES): NCc1nc(-c2csc(C(=O)c3c[nH]c4c(F)cccc34)n2)no1 [ARI-146, (4-(5-(aminomethyl)-1,2,4-oxadiazol-3-yl)thiazol-2-yl)(7-fluoro-1H-indol-3-yl)methanone]

Structure (SMILES): Nc1nnc(-c2csc(C(=O)c3c[nH]c4ccc(F)cc34)n2)o1 [ARI-148, (4-(5-amino-1,3,4-oxadiazol-2-yl)thiazol-2-yl)(5-fluoro-1H-indol-3-yl)methanone]
IC50: 5.9 nM

Structure (SMILES): CCC(=O)c1csc(C(=O)c2c[nH]c3cc(F)c(F)cc23)n1 [ARI-149, 1-(2-(5,6-difluoro-1H-indole-3-carbonyl)thiazol-4-yl)propan-1-one]
IC50: 30.3 nM
